The values that follow come from article PMC12563821 (International Journal of Molecular Sciences, 2025).

One assay concerns the target T1, Sirt2 (Homo sapiens, UniProt Q8IXJ6).
T1 construct: comprising amino acids 50–389 (C-terminal); His-tag (N); purchased Reaction Biology Corporation (Malvern, PA, USA), in-house enzyme of the contract laboratory; host or cells: E. coli
T1 sequence (Q8IXJ6 50-389): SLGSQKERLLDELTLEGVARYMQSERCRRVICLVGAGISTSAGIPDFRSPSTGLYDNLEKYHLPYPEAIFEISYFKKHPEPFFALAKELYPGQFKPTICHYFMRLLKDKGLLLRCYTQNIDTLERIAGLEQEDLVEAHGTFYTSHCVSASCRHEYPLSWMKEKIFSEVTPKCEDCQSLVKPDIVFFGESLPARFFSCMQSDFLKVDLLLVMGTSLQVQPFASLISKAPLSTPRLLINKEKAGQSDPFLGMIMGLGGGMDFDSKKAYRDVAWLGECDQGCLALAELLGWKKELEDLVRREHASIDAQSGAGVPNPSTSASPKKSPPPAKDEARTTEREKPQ
Description: Fluorescence-based Sirt2 deacetylase inhibition assay (Reaction Biology). Type of assay: biochemical. The settings on record: for IC50: fluorescence-based assay. Here is the method: (§1) The determination of the inhibitory potency and corresponding subtype selectivity of the synthesized hybrid candidates was performed by Reaction Biology Cooperation (Malvern, PA, USA) using a fluorescence-based assay (Table 1).
Sirtuin assays. The biological activity of the test substances against the respective sirtuin enzymes was evaluated by means of a fluorescence-based assay performed by Reaction Biology Corporation (Malvern, PA, USA). The sirtuin enzymes used in the assays were all obtained from in-house sources at Reaction Biology Corporation (Malvern, PA, USA). […] Sirt2 is provided in a buffer containing 50 mM Tris/HCl (pH 7.5), 500 mM NaCl, 1 mM TCEP, and 10% glycerol (v/v). […] Sirt3 is supplied in 50 mM Tris/HCl (pH 7.5), 500 mM NaCl, and 10% glycerol (v/v). […] All proteins were provided in purified forms for use in the assays. […] After 2 h of incubation at 30 °C, the universal inhibitor nicotinamide was added in excess to completely stop the deacetylation reaction, followed by the addition of a protease-based developer to release 7-amino-4-methylcoumarin, resulting in characteristic fluorescence, which was measured after 1 h at 30 °C (excitation/emission = 360/460). A no-inhibitor control was implemented, serving as a reference for 100% enzyme activity. […] Three individual IC50 values per test compound were calculated from the corresponding three dilution series fluorescence data using sigmoidal curve fitting in Prism 8.0.2 (GraphPad Software, Boston, MA, USA), and these were averaged to determine the mean IC50 value along with the standard deviation. To assess the selectivity against Sirt1, Sirt3, and Sirt5, a 50 µM concentration of the test compound was tested in duplicate, and the inhibitory activity was expressed as the mean of the duplicates in percentage of enzyme activity, including standard deviation, relative to the no-inhibitor control (representative 100% enzyme activity).

A further assay has as its system T2, Sirt5.
T2 construct: consisting of amino acids 37–310 (C-terminal); His-tag (N); purchased Reaction Biology Corporation (Malvern, PA, USA), in-house enzyme of the contract laboratory; host or cells: E. coli
Description: Fluorescence-based Sirt5 subtype selectivity assay (Reaction Biology). Type of assay: biochemical. The settings on record: 50 µM inhibitor, duplicate, relative to no-inhibitor control. Here is the method:
as §1
Sirtuin assays. The biological activity of the test substances against the respective sirtuin enzymes was evaluated by means of a fluorescence-based assay performed by Reaction Biology Corporation (Malvern, PA, USA). The sirtuin enzymes used in the assays were all obtained from in-house sources at Reaction Biology Corporation (Malvern, PA, USA). Sirt1, with accession number NM_012238, includes amino acids 1–747 (C-terminal) and is tagged with an N-terminal His-tag. Sirt1 was expressed in E. coli and purified to greater than 85% as confirmed by SDS-PAGE and is supplied as a solution in 50 mM Tris/HCl (pH 7.5), 100 mM NaCl, and 10% glycerol (v/v). Sirt2 (accession number NM_012237), comprising amino acids 50–389 (C-terminal), features an N-terminal His-tag and was expressed in E. coli and finally purified to over 90% by SDS-PAGE. Sirt2 is provided in a buffer containing 50 mM Tris/HCl (pH 7.5), 500 mM NaCl, 1 mM TCEP, and 10% glycerol (v/v). Sirt3, with accession number NM_012239.3, spans amino acids 101–399 and is tagged with an N-terminal GST and expressed in E. coli and purified to greater than 85% purity by SDS-PAGE. Sirt3 is supplied in 50 mM Tris/HCl (pH 7.5), 500 mM NaCl, and 10% glycerol (v/v). Sirt5 (accession number NM_012241), consisting of amino acids 37–310 (C-terminal) and tagged with an N-terminal His-tag, was expressed in E. coli, purified to greater than 95% purity by SDS-PAGE and delivered as a solution in 50 mM Tris/HCl (pH 7.5), 500 mM NaCl, 1 mM TCEP, and 10% glycerol (v/v). All proteins were provided in purified forms for use in the assays. The respective internal assay protocol is outlined in the following: After the test substances (dissolved in DMSO) were incubated with the desired sirtuin enzyme in assay buffer (Tris-HCl, pH = 8) for 10 min at 30 °C, a substrate mixture consisting of a 7-amino-4-methylcoumarin-linked fluorogenic peptide substrate (p53 residues 379–382) and the cofactor NAD^+ was added. After 2 h of incubation at 30 °C, the universal inhibitor nicotinamide was added in excess to completely stop the deacetylation reaction, followed by the addition of a protease-based developer to release 7-amino-4-methylcoumarin, resulting in characteristic fluorescence, which was measured after 1 h at 30 °C (excitation/emission = 360/460). A no-inhibitor control was implemented, serving as a reference for 100% enzyme activity. […] Three individual IC50 values per test compound were calculated from the corresponding three dilution series fluorescence data using sigmoidal curve fitting in Prism 8.0.2 (GraphPad Software, Boston, MA, USA), and these were averaged to determine the mean IC50 value along with the standard deviation. To assess the selectivity against Sirt1, Sirt3, and Sirt5, a 50 µM concentration of the test compound was tested in duplicate, and the inhibitory activity was expressed as the mean of the duplicates in percentage of enzyme activity, including standard deviation, relative to the no-inhibitor control (representative 100% enzyme activity).

Where [1] appears, read: rounded values, read-out: IC50 Sirt2.
[2] abbreviates: mean ± SD of three dilution series, read-out: IC50 [µM] ± SD Sirt2.

Structures are written as SMILES. Like-named read-outs stand apart in the source and are kept apart here.

The IC50 is the concentration that inhibits the measured activity by half.

For the compound `Cc1cc(C)nc(SCC(=O)Nc2ncc(COc3ccccc3)s2)n1` [FM345, 2-((4,6-Dimethylpyrimidin-2-yl)thio)-N-(5-(phenoxymethyl)thiazol-2-yl)acetamide], the IC50 at Sirt2 (setting [1]) was determined as 5.3 µM; on Sirt2 (setting [2]), 5.29 ± 0.73 µM. In addition, the “Residual Enzyme Activity [%] ± SD Sirt5” value with Sirt5 is on record as 94.6 ± 2.3%.
With `Cc1cc(C)nc(SCC(=O)Nc2ncc(COc3ccc(NC(=O)c4cccs4)cc3)s2)n1` [FM352, N-(4-((2-(2-((4,6-Dimethylpyrimidin-2-yl)thio)acetamido)thiazol-5-yl)methoxy)phenyl)thiophene-2-carboxamide], the IC50 at Sirt2 (setting [1]) came out at 0.094 µM; at Sirt2 (setting [2]), 0.0935 ± 0.0064 µM. In the assay on Sirt5, the “Residual Enzyme Activity [%] ± SD Sirt5” value stood at 75.6 ± 1.1%.
In the case of `Cc1cc(C)nc(SCC(=O)Nc2ncc(COc3ccc(NC(=O)c4cnn(C)c4)cc3)s2)n1` [FM358, N-(4-((2-(2-((4,6-Dimethylpyrimidin-2-yl)thio)acetamido)thiazol-5-yl)methoxy)-phenyl)-1-methyl-1H-pyrazole-4-carboxamide], the concentration for half-maximal inhibition (IC50) on Sirt2 (setting [1]) came to 0.066 µM; on Sirt2 (setting [2]), 0.0656 ± 0.0044 µM. For the same compound, the “stronger Sirt2 inhibition compared to lead compound Yang_24a (fold)” value on Sirt2 (ratio of Sirt2 IC50 values) is on record as 1.2. For the same compound, in the assay on Sirt5, the “Residual Enzyme Activity [%] ± SD Sirt5” value is given as 79.8 ± 0.6%.
For the compound `Cc1cc(C)nc(SCC(=O)Nc2ncc(COc3cccc4ccccc34)s2)n1` [FM368, 2-((4,6-Dimethylpyrimidin-2-yl)thio)-N-(5-((naphthalen-1-yloxy)methyl)thiazol-2-yl)acetamide], the figures for the IC50 at Sirt2 (setting [1]) and on Sirt2 (setting [2]) were 6.5 µM and 6.51 ± 0.84 µM, respectively. In addition, in the assay on Sirt5, the “Residual Enzyme Activity [%] ± SD Sirt5” value was 89.1 ± 1.4%.
As to `Cc1cc(C)nc(SCC(=O)Nc2ncc(COc3ccc(NC(=O)c4cnn(C)c4)c(Br)c3)s2)n1` [RW-93, N-(2-Bromo-4-((2-(2-((4,6-dimethylpyrimidin-2-yl)thio)acetamido)thiazol-5-yl)-methoxy)phenyl)-1-methyl-1H-pyrazole-4-carboxamide], the “selectivity towards related subtypes Sirt1, Sirt3 and Sirt5” value on Sirt2 (Sirt2 versus Sirt1, Sirt3, Sirt5) is “more than 3000 fold”. Moreover, the half-maximal inhibitory concentration (IC50) at Sirt2 (setting [1]) was 0.016 µM. Also, the half-inhibitory concentration (IC50) on Sirt2 (setting [2]) was 0.0155 ± 0.0007 µM. Further, at Sirt2 (ratio of Sirt2 IC50 values), the “outperforms lead compound SirReal2 by a factor” value is on record as 15, the “stronger Sirt2 inhibition compared to lead compound Yang_24a (fold)” value came to 5 and the “times more potent than hybrid precursor FM358” value is “more than 4”. Besides, the “Residual Enzyme Activity [%] ± SD Sirt5” value in the assay on Sirt5 is on record as 53.0 ± 0.2%.
Turning to `Cc1cc(C)nc(SCC(=O)Nc2ncc(COc3ccc(NC(=O)c4cnn(C)c4)c(I)c3)s2)n1` [RW-95, N-(4-((2-(2-((4,6-Dimethylpyrimidin-2-yl)thio)acetamido)thiazol-5-yl)methoxy)-2-iodophenyl)-1-methyl-1H-pyrazole-4-carboxamide], the concentration for half-maximal inhibition (IC50) turned out to be 0.049 µM at Sirt2 (setting [1]) and 0.0485 ± 0.0056 µM at Sirt2 (setting [2]). Moreover, the “Residual Enzyme Activity [%] ± SD Sirt5” value in the assay on Sirt5 is 48.2 ± 1.8%.
